What is called EC50 is the concentration that produces a half-maximal response. Usually IC50 stands for the point on the concentration scale where inhibition reaches its midpoint. One may read the AC50 as the midpoint of the concentration-response curve, whichever way the signal moves.

Calls of active or inactive are those of the source.

Experiment [1] concerns the target ATP-dependent molecular chaperone HSP82 (Candida albicans (strain WO-1) (Yeast), UniProt C4YTQ8). Nature of the experiment: steroid-induced GRE reporter decrease in yeast – S. cerevisiae, luminescence, Hsp90 inhibitor project, dose response (AID 2400).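 Note: beta-galactosidase luminescence from glucocorticoid response element reporter as proxy for Hsp90 function; inhibitor potency where signal loss means Hsp90 inhibition.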 Type of experiment: functional, cell-based.
Experiment [2] is described as follows: NIH-3T3 fibroblast cytotoxicity, dose response, cytotoxicity control, cell-based, fluorescence, Alamar Blue, secondary assay (AID 2327).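 Note: NIH-3T3 mouse fibroblasts cultured with fluconazole at 8 µg/mL.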 Format: functional. For orientation: Alamar Blue is a resazurin reagent that responds to reducing activity.
Experiment [3] concerns the target T1, Calpain-2 catalytic subunit (Sus scrofa, UniProt P43367).
T1 sequence (P43367 whole entry): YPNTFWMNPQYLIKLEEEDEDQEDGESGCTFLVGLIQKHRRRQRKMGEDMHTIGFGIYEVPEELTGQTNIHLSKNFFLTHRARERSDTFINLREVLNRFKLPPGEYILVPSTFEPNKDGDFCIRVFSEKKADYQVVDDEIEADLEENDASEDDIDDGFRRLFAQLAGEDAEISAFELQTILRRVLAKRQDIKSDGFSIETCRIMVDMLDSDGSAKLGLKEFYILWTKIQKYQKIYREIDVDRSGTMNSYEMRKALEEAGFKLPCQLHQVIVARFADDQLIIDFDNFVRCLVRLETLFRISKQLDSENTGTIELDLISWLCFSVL
In words: m-calpain protease blockers, concentration series – biochemical, fluorogenic peptide substrate, dose response (AID 1420). Format: functional.

Experiment [4] deals with T2, Serine/threonine-protein phosphatase (Candida dubliniensis (strain CD36 / CBS 7987 / NCPF 3949 / NRRLY-17841) (Yeast), UniProt B9W6M3).
T2 sequence (B9W6M3 whole entry): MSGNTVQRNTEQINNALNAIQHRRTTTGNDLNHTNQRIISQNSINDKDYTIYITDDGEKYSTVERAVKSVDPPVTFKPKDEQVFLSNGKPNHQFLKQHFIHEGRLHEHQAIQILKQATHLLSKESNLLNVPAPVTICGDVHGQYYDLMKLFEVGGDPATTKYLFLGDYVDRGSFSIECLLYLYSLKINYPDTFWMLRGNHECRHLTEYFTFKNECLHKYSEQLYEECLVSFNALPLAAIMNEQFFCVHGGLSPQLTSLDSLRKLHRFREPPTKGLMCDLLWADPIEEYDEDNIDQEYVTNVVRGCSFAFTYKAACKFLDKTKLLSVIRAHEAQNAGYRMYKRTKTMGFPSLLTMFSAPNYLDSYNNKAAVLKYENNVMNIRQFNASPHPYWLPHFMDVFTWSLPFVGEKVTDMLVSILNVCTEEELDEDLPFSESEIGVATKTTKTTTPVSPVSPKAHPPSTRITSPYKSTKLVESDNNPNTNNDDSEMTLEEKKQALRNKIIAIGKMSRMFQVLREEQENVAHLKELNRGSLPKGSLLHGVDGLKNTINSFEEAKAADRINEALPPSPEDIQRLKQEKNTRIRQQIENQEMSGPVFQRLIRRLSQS
In words: blockers of CaCl2-induced CDRE-lacZ signaling – S. cerevisiae, luminescence, secondary, dose response (AID 2388).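 Note: yeast reporter cells carrying a calcineurin-responsive lacZ construct stimulated with calcium chloride; luminescent beta-galactosidase reporter signal in whole cells rather than isolated phosphatase activity; potency for inhibition where a drop in reporter signal means calcineurin blockade.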 Type of experiment: functional, cell-based.

A short description of experiment [5]: fluconazole-exposed Candida albicans growth modulators – fluorescence, retest, confirmation (AID 2467). Type of experiment: functional, cell-based.
Experiment [6] addresses T3, Short transient receptor potential channel 4 (Mus musculus, UniProt Q9QUQ5).
T3 sequence (Q9QUQ5 whole entry): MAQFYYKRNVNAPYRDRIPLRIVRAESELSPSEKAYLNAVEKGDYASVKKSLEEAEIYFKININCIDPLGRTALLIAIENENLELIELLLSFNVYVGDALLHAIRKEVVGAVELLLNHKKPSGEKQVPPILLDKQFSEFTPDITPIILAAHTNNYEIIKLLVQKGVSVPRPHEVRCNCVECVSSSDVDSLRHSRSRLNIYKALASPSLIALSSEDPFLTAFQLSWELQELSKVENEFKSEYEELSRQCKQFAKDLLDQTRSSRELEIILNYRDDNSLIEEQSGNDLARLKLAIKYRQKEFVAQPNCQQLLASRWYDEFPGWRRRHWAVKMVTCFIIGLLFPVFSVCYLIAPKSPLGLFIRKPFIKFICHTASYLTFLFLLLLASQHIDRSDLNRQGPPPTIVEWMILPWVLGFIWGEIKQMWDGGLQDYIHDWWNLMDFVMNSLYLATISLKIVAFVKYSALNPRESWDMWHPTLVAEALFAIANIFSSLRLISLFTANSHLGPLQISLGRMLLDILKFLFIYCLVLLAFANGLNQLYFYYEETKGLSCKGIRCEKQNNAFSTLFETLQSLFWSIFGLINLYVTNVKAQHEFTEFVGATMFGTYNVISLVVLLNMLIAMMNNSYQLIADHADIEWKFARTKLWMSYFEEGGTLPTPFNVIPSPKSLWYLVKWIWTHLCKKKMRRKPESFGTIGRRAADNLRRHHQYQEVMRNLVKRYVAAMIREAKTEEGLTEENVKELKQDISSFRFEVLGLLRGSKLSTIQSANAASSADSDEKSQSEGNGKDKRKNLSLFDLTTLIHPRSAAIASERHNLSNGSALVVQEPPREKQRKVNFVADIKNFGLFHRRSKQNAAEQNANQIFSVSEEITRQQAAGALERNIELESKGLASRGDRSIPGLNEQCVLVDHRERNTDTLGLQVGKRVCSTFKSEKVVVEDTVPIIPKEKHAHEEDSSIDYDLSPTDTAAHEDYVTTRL
In words: calcium entry via TRPC4 opening agents – cell-based, HEK293 TRPC4/mu-opioid, Fluo-4 calcium, dose response (AID 434937). Type of experiment: functional.

Experiment [7] has as its target Glucose-6-phosphate 1-dehydrogenase (Homo sapiens, UniProt P11413). In words: inhibition of Homo sapiens G6PD, dose series – biochemical, fluorescence, selectivity assay for P. falciparum G6PD inhibitor project, dose response (AID 504792). Format: functional.
Experiment [8] in a line: luciferase reporter signal suppression in cells – H4 neuroglioma cells, luminescence, dose response (AID 1990). Format: functional, cell-based. A general note: In a reporter assay the amount or activity of a reporter protein is the signal.
Experiment [9] can be described thus: alpha-synuclein stem-loop luciferase translation blockers – H4 neuroglioma cells, luminescence, confirmation (AID 1988). Format: functional, cell-based.
Experiment [10] can be described thus: Luminescence Cell-Based Dose Response HTS to Identify Inhibitors of 5'UTR Stem-Loop Driven Prion Protein mRNA Translation in H4 Neuroglioblastoma Cells. [Related pubchem assays: 1827 (Project Summary), 1813 (Primary HTS)]. Format: functional.
The test system of the next experiment is HEK293. In words: EBV LMP1 TES2 canonical NF-kB signalling blockers – cell-based, HEK293, luciferase, cherry-pick, dose response (AID 588343). Type of experiment: functional. To be noted: Homo sapiens.
The subject of another experiment is Escherichia coli. In words: microbe, parasite or virus in culture.
Experiment [11] can be described thus: THP-1 cell cytotoxicity, dose response, cytotoxicity control for non-replicating M. tuberculosis project (AID 489025). Type of experiment: functional.
A further experiment in a line: cells. Type of experiment: functional.
A further experiment concerns the target T4, Protein skinhead-1 (Caenorhabditis elegans, UniProt P34707).
T4 sequence (P34707 whole entry): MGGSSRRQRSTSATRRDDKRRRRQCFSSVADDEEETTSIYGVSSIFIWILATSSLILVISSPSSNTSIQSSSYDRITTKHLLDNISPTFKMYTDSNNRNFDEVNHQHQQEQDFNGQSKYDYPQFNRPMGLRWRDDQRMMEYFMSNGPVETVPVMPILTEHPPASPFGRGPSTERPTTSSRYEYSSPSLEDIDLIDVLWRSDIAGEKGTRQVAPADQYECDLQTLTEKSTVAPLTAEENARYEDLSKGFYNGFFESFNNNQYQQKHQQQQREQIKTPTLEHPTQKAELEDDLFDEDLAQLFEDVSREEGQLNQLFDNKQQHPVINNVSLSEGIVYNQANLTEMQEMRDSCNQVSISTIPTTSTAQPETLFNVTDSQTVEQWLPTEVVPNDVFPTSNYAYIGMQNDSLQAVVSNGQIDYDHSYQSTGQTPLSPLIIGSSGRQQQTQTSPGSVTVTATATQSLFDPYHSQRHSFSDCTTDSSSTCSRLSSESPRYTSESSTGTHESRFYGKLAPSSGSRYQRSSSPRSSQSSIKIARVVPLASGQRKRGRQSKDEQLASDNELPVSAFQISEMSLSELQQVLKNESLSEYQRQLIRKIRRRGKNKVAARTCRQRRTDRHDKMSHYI
Format: functional.

Experiment [12] is described as follows: Vero E6 cell cytotoxicity, dose response, cytotoxicity control for non-replicating M. tuberculosis project, secondary assay (AID 492998). Format: functional, VeroE6. To be noted: Vero C1008.
Experiment [13] is described as follows: HepG2 cell cytotoxicity, dose response, cytotoxicity control for non-replicating M. tuberculosis project (AID 489018). Type of experiment: functional. To be noted: Mycobacterium tuberculosis.
The nature of experiment [14]: Trypanosoma cruzi growth suppression in host cells – NIH3T3 host cells, beta-gal luminescence, confirmation (AID 2044).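 Note: intracellular parasites grown in NIH/3T3 mouse fibroblasts as host cells; luminescent beta-galactosidase reporter signal from transgenic T. cruzi replicating inside host cells; inhibitors lower the luminescence signal.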 Format: functional, cell-based.
Experiment [15] in a line: NIH3T3 cell viability loss – ATP luminescence, mouse fibroblasts, counter-screen, dose response (AID 2010).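 Note: cells exposed to compound for about 90 hours before reading.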 Format: functional, cell-based. In general terms: The purpose of a counterscreen is to sort out artefacts and off-target activity.
Experiment [16] can be described thus: MIN6 cell viability loss – mouse insulinoma, cytotoxicity control, dose response (AID 2122).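 Note: confirmatory high-throughput counterscreen run to flag cytotoxic compounds.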 Type of experiment: functional.
A short description of experiment [17]: decrease of insulin promoter-GFP reporter – imaging, high-content screening, mouse beta cells (AID 1628). Type of experiment: functional. To be noted: MIN6.
The target in experiment [18] is T3, Short transient receptor potential channel 4. In words: block of DAMGO-driven TRPC4 calcium entry – cell-based, HEK293 TRPC4/mu-opioid, Fluo-4 calcium, dose response (AID 434942).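 Note: potency of inhibitors blocking the TRPC4 calcium response.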 Format: functional.
A short description of experiment [19]: microbe, parasite or virus in culture. To be noted: Mycobacterium tuberculosis. Type of experiment: functional.
In experiment [20] the target is T5, Ubiquitin-conjugating enzyme E2 N (Homo sapiens, UniProt P61088).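 Note: Dose-response confirmation in a TR-FRET assay detecting UBC13-driven polyubiquitin chain formation, inhibition measured.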
T5 sequence (P61088 whole entry): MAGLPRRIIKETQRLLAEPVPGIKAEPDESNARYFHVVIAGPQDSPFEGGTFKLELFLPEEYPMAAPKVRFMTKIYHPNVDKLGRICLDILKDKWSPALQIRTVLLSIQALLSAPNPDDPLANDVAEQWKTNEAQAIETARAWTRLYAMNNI
Type of experiment: functional.

Chain of Glucose-6-phosphate 1-dehydrogenase (P11413 whole entry): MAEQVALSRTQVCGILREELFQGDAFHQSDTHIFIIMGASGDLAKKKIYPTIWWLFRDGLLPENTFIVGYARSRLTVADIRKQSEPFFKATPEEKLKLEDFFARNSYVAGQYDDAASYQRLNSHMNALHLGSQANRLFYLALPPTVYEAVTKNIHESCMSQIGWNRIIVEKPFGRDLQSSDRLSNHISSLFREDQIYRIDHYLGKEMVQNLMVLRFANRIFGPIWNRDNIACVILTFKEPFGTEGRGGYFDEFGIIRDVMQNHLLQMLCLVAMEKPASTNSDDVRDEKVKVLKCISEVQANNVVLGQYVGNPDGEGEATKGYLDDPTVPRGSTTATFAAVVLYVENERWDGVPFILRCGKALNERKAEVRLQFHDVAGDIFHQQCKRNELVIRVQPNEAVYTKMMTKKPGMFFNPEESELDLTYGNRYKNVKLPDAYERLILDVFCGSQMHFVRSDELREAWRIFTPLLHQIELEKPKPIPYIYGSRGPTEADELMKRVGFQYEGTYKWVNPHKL
Chain of ATP-dependent molecular chaperone HSP82 (C4YTQ8 whole entry): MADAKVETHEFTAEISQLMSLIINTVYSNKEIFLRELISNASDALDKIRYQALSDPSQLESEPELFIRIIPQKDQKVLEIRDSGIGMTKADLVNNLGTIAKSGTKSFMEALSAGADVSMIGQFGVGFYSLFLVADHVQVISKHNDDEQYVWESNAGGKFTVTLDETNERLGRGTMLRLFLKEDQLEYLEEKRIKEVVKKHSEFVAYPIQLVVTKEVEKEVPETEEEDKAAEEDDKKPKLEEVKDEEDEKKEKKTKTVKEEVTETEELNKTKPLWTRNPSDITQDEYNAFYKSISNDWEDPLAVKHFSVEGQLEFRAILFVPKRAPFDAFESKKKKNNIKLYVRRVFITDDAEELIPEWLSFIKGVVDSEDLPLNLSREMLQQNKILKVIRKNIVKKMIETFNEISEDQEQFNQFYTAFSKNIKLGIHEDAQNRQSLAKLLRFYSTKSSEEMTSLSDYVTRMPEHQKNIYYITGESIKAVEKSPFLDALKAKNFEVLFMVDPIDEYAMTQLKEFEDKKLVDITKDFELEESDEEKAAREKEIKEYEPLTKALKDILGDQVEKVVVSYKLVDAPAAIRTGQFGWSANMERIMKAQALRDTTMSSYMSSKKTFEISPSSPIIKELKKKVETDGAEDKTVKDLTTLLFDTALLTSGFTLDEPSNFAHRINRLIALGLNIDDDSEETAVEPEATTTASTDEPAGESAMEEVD

With `Cc1ccc(NC(=O)c2noc(C(C)C)c2[N+](=O)[O-])cc1`, the EC50 in [1] was > 160 µM (inactive); in experiment [2], > 150 µM (inconclusive); in [4], > 180 µM (inactive); in experiment [5] it was 3.18 µM (active). In addition, in [3], the 50% inhibitory concentration (IC50) was > 50 µM (not active).
`CCCN1CCN(C(=O)Cn2c(=O)oc3cc(S(=O)(=O)NCc4ccccc4)ccc32)CC1`: the EC50 in [6] is 4.22 µM (active).
In the case of `COc1cc(NCCCn2cnc(C(=O)Nc3ccc(C)c(C)c3)n2)cc(OC)c1OC`, the IC50 in experiment [7] was > 80 µM (inactive).
Take `Oc1c2c(nc3c(-c4cccc(Br)c4)cnn13)CCCC2`: the 50% effective concentration (EC50) in experiment [8] was 11.2 µM (active); in experiment [9], 9.2 µM (active); in experiment [10] it was 8.39 µM (active). In addition, the AC50 in the experiment with HEK293 is 4.49 µM (active).
`Cn1ncc(Cl)c1C(=O)NC1CCCC1`: the AC50 in the experiment with HEK293 is > 350 µM (inactive).
As for `COc1ccc(Nc2nc(NCCO)nc(OC)n2)cc1`, the AC50 in the experiment with Escherichia coli was 25.5 µM (active).
Turning to `CCN(CC)Cc1ccc(NC(=O)c2sc3cc(Cl)ccc3c2Cl)cc1`, the results for the CC50 in [11], in experiment [12] and in experiment [13] were 19.9 µM (active), 18.9 µM (active) and 11.7 µM (active), respectively. For the same molecule, the EC50 in [2] was 16.8 µM (inconclusive); in experiment [5], 3.87 µM (active). Also, the IC50 was 32.9 µM (active) in the experiment “cells” and 26.3 µM (active) at Protein skinhead-1.
`COc1cccc(CNC(=O)CN2CCC(c3nc4cc(C)ccc4[nH]3)CC2)c1`: the EC50 in experiment [14] was 0.217 µM (active); in experiment [15], > 60 µM (not active). Further, the IC50 in experiment [16] was 15 µM (inactive); in [17], 2 µM (active).
Consider `Cc1ccc(-c2c(C(=O)N/N=C/c3cccs3)nnn2-c2nonc2N)cc1`, for which the IC50 in experiment [7] was > 80 µM (inactive).
Take `CN(C)C(CNC(=O)c1ccc2c(c1)S(=O)(=O)c1ccccc1C2=O)c1ccco1` (configuration not stated): the EC50 in [6] is 0.668 µM (active); in experiment [18] it was 4.73 µM (active).
With `CCOC(=O)CSc1nnc(NC(=O)c2cccc([N+](=O)[O-])c2)s1`, the IC50 in experiment [7] was 43.8 µM (inactive).
On to `COC(=O)c1c(N=C(S)NN2CCN(C)CC2)sc2c1CCC(C)C2` (configuration not stated), for which the CC50 in experiment [19] is 11.6 µM (active). The values for the IC50 in [16], in [17] and in experiment [20] were 3.07 µM (active), 4.04 µM (active) and > 20 µM (inactive), respectively.

The values are drawn from ChEMBL document CHEMBL1201862, “PubChem BioAssay data set” (2004).
